Experimental data from publication PMC7031696 (Cell chemical biology, 2019).

System: 3D7-MR4 trophozoite parasite-infected RBCs
Experiment: Metabolomic profiling (hydrophilic metabolite changes, UHPLC-MS)
Format: cell-based, Plasmodium falciparum

Question: What does the source list for `CC(C)(C)NCc1cc(Nc2ccnc3cc(Cl)ccc23)c2c(c1O)CCCC2` [Naphtoquine, Naphthoquine, reference compound]?
Answer: Log2(fold changes) adenosine (metabolite adenosine, log2 fold change): 0.0000; Log2(fold changes) alanine/sarcosine (metabolite alanine/sarcosine, log2 fold change): -0.0537; Log2(fold changes) anthranilate (metabolite anthranilate, log2 fold change): 0.0000; Log2(fold changes) arginine (metabolite arginine, log2 fold change): 0.0159; Log2(fold changes) asparagine (metabolite asparagine, log2 fold change): 0.0139; Log2(fold changes) aspartate (metabolite aspartate, log2 fold change): -0.0605; Log2(fold changes) biotin (metabolite biotin, log2 fold change): 0.0000; Log2(fold changes) cCMP (metabolite cCMP, log2 fold change): 0.0520; Log2(fold changes) cGMP (metabolite cGMP, log2 fold change): 0.0000; Log2(fold changes) carnitine (metabolite carnitine, log2 fold change): 0.0000; Log2(fold changes) citrate/isocitrate (metabolite citrate/isocitrate, log2 fold change): -0.0500; Log2(fold change) of coenzyme A (metabolite coenzyme A): -0.1736; Log2(fold change) of cyclic-AMP (metabolite cyclic-AMP): -3.95e-5; Log2(fold change) of cytidine (metabolite cytidine): 0.0481; Log2(fold change) of dAMP (metabolite dAMP): -0.6907; Log2(fold change) of dATP (metabolite dATP): 0.1926; Log2(fold change) of dCDP (metabolite dCDP): -0.7164; Log2(fold change) of dCMP (metabolite dCMP): -0.1991; Log2(fold change) of dCTP (metabolite dCTP): -0.0054; Log2(fold change) of dGDP/ADP (metabolite dGDP/ADP): -0.3882; Log2(fold change) of dGMP/AMP (metabolite dGMP/AMP): -0.6721; Log2(fold change) of dGTP/ATP (metabolite dGTP/ATP): 0.1282; Log2(fold change) of dTDP (metabolite dTDP): -0.6082; Log2(fold change) of dTMP (metabolite dTMP): -0.8354; Log2(fold change) of dTTP (metabolite dTTP): 0.1193; Log2(fold change) of dUMP (metabolite dUMP): 0.0000; Log2(fold change) of dUTP (metabolite dUTP): 0.0000; Log2(fold change) of deoxyguanosine (metabolite deoxyguanosine): 0.0000; Log2(fold change) of deoxyinosine (metabolite deoxyinosine): 0.0000; Log2(fold change) of deoxyribose-phosphate (metabolite deoxyribose-phosphate): 0.0000; Log2(fold change) of deoxyuridine (metabolite deoxyuridine): 0.0000; Log2(fold change) of dihydroorotate (metabolite dihydroorotate): -0.0270; Log2(fold change) of folate (metabolite folate): -0.0482; Log2(fold change) of fructose-1-6-bisphosphate (metabolite fructose-1-6-bisphosphate): 0.2760; Log2(fold change) of fructose-6-phosphate (metabolite fructose-6-phosphate): 0.2447; Log2(fold change) of fumarate (metabolite fumarate): 0.1140; Log2(fold change) of glucono-lactone (metabolite glucono-lactone): 0.0480; Log2(fold change) of glucose-1/6-phosphate (metabolite glucose-1/6-phosphate): 0.0000; Log2(fold change) of glutamate (metabolite glutamate): 0.0377; Log2(fold change) of glutamine (metabolite glutamine): 0.0892; Log2(fold change) of glutathione (metabolite glutathione): -0.0422; Log2(fold change) glutathione disulfide (metabolite glutathione disulfide): -0.0039; Log2(fold change) glycerate (metabolite glycerate): 0.0000; Log2(fold change) guanine (metabolite guanine): -1.1501; Log2(fold change) guanosine (metabolite guanosine): 0.0000; Log2(fold change) histidine (metabolite histidine): 0.1439; Log2(fold change) homocysteic acid (metabolite homocysteic acid): 0.0000; Log2(fold change) hydroxyphenylpyruvate (metabolite hydroxyphenylpyruvate): 0.0000; Log2(fold change) hydroxyproline/Aminolevulinate (metabolite hydroxyproline/Aminolevulinate): 0.1631; Log2(fold change) hypoxanthine (metabolite hypoxanthine): 0.0000; Log2(fold change) indole (metabolite indole): 0.0000; Log2(fold change) inosine (metabolite inosine): -0.4099; Log2(fold change) isoleucine (metabolite isoleucine): 0.1976; Log2(fold change) lactate (metabolite lactate): -0.2436; Log2(fold change) leucine (metabolite leucine): 0.1923; Log2(fold change) lysine (metabolite lysine): 0.0742; Log2(fold change) malate (metabolite malate): 0.0333; Log2(fold change) maleic acid (metabolite maleic acid): 0.0474; Log2(fold change) methionine (metabolite methionine): 0.2831; Log2(fold change) myo-inositol (metabolite myo-inositol): -0.3601; Log2(fold change) nicotinamide mononucleotide (metabolite nicotinamide mononucleotide): 0.0144; Log2(fold change) nicotinate (metabolite nicotinate): -0.5500; Log2(fold change) ornithine (metabolite ornithine): 0.0000; Log2(fold change) orotate (metabolite orotate): -0.1816; Log2(fold change) orotidine-5'-phosphate (metabolite orotidine-5'-phosphate): -0.1754; Log2(fold change) oxaloacetate (metabolite oxaloacetate): 0.0000; Log2(fold change) p-aminobenzoate (metabolite p-aminobenzoate): 0.0000; Log2(fold change) p-hydroxybenzoate (metabolite p-hydroxybenzoate): 0.0000; Log2(fold change) pantothenate (metabolite pantothenate): 0.0000; Log2(fold change) phenylalanine (metabolite phenylalanine): 0.1566; Log2(fold change) phenylpyruvate (metabolite phenylpyruvate): 0.0000; Log2(fold change) phosphoenolpyruvate (metabolite phosphoenolpyruvate): 0.1381; Log2(fold change) prephenate (metabolite prephenate): 0.0000; Log2(fold change) proline (metabolite proline): -0.0640; Log2(fold change) pyridoxine (metabolite pyridoxine): -0.2953; Log2(fold change) pyruvate (metabolite pyruvate): -0.0949; Log2(fold change) riboflavin (metabolite riboflavin): 0.0784; Log2(fold change) ribose (metabolite ribose): 0.2671; Log2(fold change) ribose-phosphate (metabolite ribose-phosphate): 0.0683; Log2(fold change) ribulose-5-phosphate (metabolite ribulose-5-phosphate): 0.2669; Log2(fold change) serine (metabolite serine): 0.0398; Log2(fold change) sn-glycerol-3-phosphate (metabolite sn-glycerol-3-phosphate): 0.2727; Log2(fold change) succinate/Methylmalonic acid (metabolite succinate/Methylmalonic acid): 0.1812; Log2(fold change) succinyl-CoA/methylmalonyl-CoA (metabolite succinyl-CoA/methylmalonyl-CoA): 0.0000; Log2(fold change) taurine (metabolite taurine): 0.1018; Log2(fold change) thiamine (metabolite thiamine): -0.0320; Log2(fold change) threonine/homoserine (metabolite threonine/homoserine): -0.0093; Log2(fold change) thymidine (metabolite thymidine): 0.0000; Log2(fold changes) thymine (metabolite thymine, log2 fold change): 0.0000; Log2(fold changes) trehalose-6-Phosphate (metabolite trehalose-6-Phosphate, log2 fold change): 0.0000; Log2(fold changes) tryptophan (metabolite tryptophan, log2 fold change): 0.2627; Log2(fold changes) tyrosine (metabolite tyrosine, log2 fold change): 0.1902; Log2(fold changes) uridine (metabolite uridine, log2 fold change): 0.0000; Log2(fold changes) valine (metabolite valine, log2 fold change): 0.0658; Log2(fold changes) xanthine (metabolite xanthine, log2 fold change): -0.8439; Log2(fold changes) xanthosine-5-phosphate (metabolite xanthosine-5-phosphate, log2 fold change): 0.0356; Log2(fold changes) xanthosine (metabolite xanthosine, log2 fold change): 0.2527; Log2(fold changes) xylose (metabolite xylose, log2 fold change): 0.0000
